≈ marks a conversion by molar mass, not a printed value.
Legend:
[1] = system: methicillin-sensitive Staphylococcus aureus; assay: MIC by broth micro-dilution (CLSI), methicillin-sensitive S. aureus; format: cell-based; conditions: Staphylococcus aureus, ATCC 29213 / MSSA, MSSA S. aureus ATCC29213; read-out: MIC
[2] = system: carbapenemase producing K. pneumoniae; assay: MIC by broth micro-dilution (CLSI), carbapenemase producing K. pneumoniae; format: cell-based, Klebsiella pneumoniae; conditions: Klebsiella pneumoniae, ATCCBAA1705, KPC-2 K. pneumoniae ATCC BAA-1705; read-out: MIC
[3] = system: carbapenem sensitive Escherichia coli; assay: MIC by broth micro-dilution (CLSI), carbapenem sensitive E. coli; format: cell-based; conditions: Escherichia coli, ATCC25922, ESBL −ve E. coli ATCC25922; read-out: MIC
[4] = system: carbapenem sensitive Pseudomonas aeruginosa; assay: MIC by broth micro-dilution (CLSI), carbapenem sensitive P. aeruginosa; format: cell-based; conditions: Pseudomonas aeruginosa, ATCC27853, Meropenem susceptible P. aeruginosa ATCC27853; read-out: MIC
[5] = system: extended spectrum β lactamase (ESBL) SHV18 producing Klebsiella pneumoniae; assay: MIC by broth micro-dilution (CLSI), ESBL SHV18 producing K. pneumoniae; format: cell-based; conditions: Klebsiella pneumoniae, ATCC700603, 22 h, ESBL +ve (SHV-18) K. pneumoniae ATCC700603; read-out: MIC

| SMILES | MIC [1] [µg/mL] | MIC [2] [µg/mL] | MIC [3] [µg/mL] | MIC [4] [µg/mL] | MIC [5] [µg/mL] |
| --- | --- | --- | --- | --- | --- |
| C[C@@H](NC(=O)C(F)F)[C@H]1C(=O)N2C(C(=O)O)=C(SCc3cccnc3)[C@H](C)[C@H]12 [Example 96] | 1 (≈ 2.43 µM) | 32 (≈ 77.8 µM) | 4 (≈ 9.72 µM) | > 128 | 64 (≈ 156 µM) |
| CNCC(=O)N[C@@H]1CCN(C(=O)[C@@H]2C[C@H](SC3=C(C(=O)O)N4C(=O)[C@H]([C@@H](C)NC(=O)C(F)F)[C@H]4[C@H]3C)CN2)C1 [Example 155] | 2 (≈ 3.49 µM) | 8 (≈ 14 µM) | 1 (≈ 1.75 µM) | 32 (≈ 55.9 µM) | 8 (≈ 14 µM) |
| C[C@@H](NC(=O)C(F)F)[C@H]1C(=O)N2C(C(=O)O)=C(S[C@@H]3CN[C@H](C(=O)N4CC[C@H](NC(=N)N)C4)C3)[C@H](C)[C@H]12 [Example 195] | 2 (≈ 3.68 µM) | 4 (≈ 7.36 µM) | 0.5 (≈ 0.92 µM) | 8 (≈ 14.7 µM) | 1 (≈ 1.84 µM) |
| CCS(=O)(=O)CC(=O)N[C@H](C)[C@H]1C(=O)N2C(C(=O)O)=C(S[C@@H]3CN[C@H](C(=O)N(C)C)C3)[C@H](C)[C@H]12 [Example 63] | 8 to 16 (≈ 15.5 to 31 µM) | 8 to 16 (≈ 15.5 to 31 µM) | 1 to 2 (≈ 1.94 to 3.87 µM) | > 128 | 16 to 32 (≈ 31 to 61.9 µM) |
| CNCC(=O)N1CCN(C(=O)[C@@H]2C[C@H](SC3=C(C(=O)O)N4C(=O)[C@H]([C@@H](C)NC(=O)C(F)F)[C@H]4[C@H]3C)CN2)CC1 [Example 158] | 2 (≈ 3.49 µM) | 4 (≈ 6.99 µM) | 1 (≈ 1.75 µM) | 8 (≈ 14 µM) | 4 (≈ 6.99 µM) |
| COc1ccc(S(=O)(=O)N[C@H](C)[C@H]2C(=O)N3C(C(=O)O)=C(S[C@@H]4CN[C@H](C(=O)N(C)C)C4)[C@H](C)C23)cc1OC (some centres unmarked) [Example 9] | 8 (≈ 13.7 µM) | > 128 | 128 (≈ 220 µM) | > 128 | > 128 |
| C[C@@H](NC(=O)[C@H](N)Cc1ccccc1)[C@H]1C(=O)N2C(C(=O)O)=C(S[C@@H]3CN[C@H](C(=O)N(C)C)C3)[C@H](C)[C@H]12 [Example 72] | 32 (≈ 60.4 µM) | > 128 | 32 (≈ 60.4 µM) | > 128 | > 128 |
| C[C@@H](NS(=O)(=O)Cc1ccccc1)[C@H]1C(=O)N2C(C(=O)O)=C(S[C@@H]3CN[C@H](C(=O)N(C)C)C3)[C@H](C)[C@H]12 [Example 16] | 4 (≈ 7.45 µM) | 16 (≈ 29.8 µM) | 4 (≈ 7.45 µM) | > 128 | 64 (≈ 119 µM) |

The remaining lines, values ahead:

| MIC [1] [µg/mL] | MIC [2] [µg/mL] | MIC [3] [µg/mL] | MIC [4] [µg/mL] | MIC [5] [µg/mL] | SMILES |
| --- | --- | --- | --- | --- | --- |
| 8 to 16 (≈ 17.1 to 34.1 µM) | 4 (≈ 8.54 µM) | 1 to 2 (≈ 2.13 to 4.27 µM) | 8 (≈ 17.1 µM) | 1 to 2 (≈ 2.13 to 4.27 µM) | COC(=O)C(=O)N[C@H](C)[C@H]1C(=O)N2C(C(=O)O)=C(S[C@@H]3CN[C@H](C(=O)N(C)C)C3)[C@H](C)[C@H]12 [Example 74] |
| 32 (≈ 65.4 µM) | 64 (≈ 131 µM) | 4 (≈ 8.17 µM) | > 128 | 32 (≈ 65.4 µM) | C[C@@H](NC(=O)C(F)(F)CN)[C@H]1C(=O)N2C(C(=O)O)=C(S[C@@H]3CN[C@H](C(=O)N(C)C)C3)[C@H](C)[C@H]12 [Example 138] |
| 2 (≈ 3.51 µM) | 8 (≈ 14 µM) | 1 (≈ 1.75 µM) | 128 (≈ 224 µM) | 8 (≈ 14 µM) | C[C@@H](NS(=O)(=O)C(F)(F)F)[C@H]1C(=O)N2C(C(=O)O)=C(S[C@@H]3CN[C@H](C(=O)N4CCC(O)CC4)C3)[C@H](C)[C@H]12 [Example 30] |
| 1 (≈ 2.08 µM) | > 128 | 8 (≈ 16.6 µM) | > 128 | > 128 | CO/N=C(\C)C(=O)N[C@H](C)[C@H]1C(=O)N2C(C(=O)O)=C(S[C@@H]3CN[C@H](C(=O)N(C)C)C3)[C@H](C)[C@H]12 [Example 54] |
| 2 (≈ 3.96 µM) | 2 (≈ 3.96 µM) | 0.5 (≈ 0.991 µM) | 64 (≈ 127 µM) | 2 (≈ 3.96 µM) | C[C@@H](NC(=O)C(F)F)[C@H]1C(=O)N2C(C(=O)O)=C(S[C@@H]3CN[C@H](C(=O)N4CC[C@@H](F)C4)C3)[C@H](C)[C@H]12 [Example 209] |
| 2 (≈ 3.96 µM) | 4 (≈ 7.91 µM) | 4 (≈ 7.91 µM) | 32 (≈ 63.3 µM) | 4 (≈ 7.91 µM) | C[C@H]([C@H]1C(=O)N2C(C(=O)O)=C(SC3CN[C@H](C(=O)N4CC[C@@H](N)C4)C3)[C@H](C)[C@H]12)n1cc(CO)nn1 (some centres unmarked) [Example 167] |
| 32 (≈ 68.3 µM) | 32 (≈ 68.3 µM) | 8 (≈ 17.1 µM) | > 128 | 32 (≈ 68.3 µM) | CCOC(=O)CN[C@H](C)[C@H]1C(=O)N2C(C(=O)O)=C(S[C@@H]3CN[C@H](C(=O)N(C)C)C3)[C@H](C)[C@H]12 [Example 98] |
| 32 (≈ 70.6 µM) | > 128 | 2 (≈ 4.41 µM) | 32 (≈ 70.6 µM) | 16 (≈ 35.3 µM) | C[C@@H](N)C(=O)N[C@H](C)[C@H]1C(=O)N2C(C(=O)O)=C(S[C@@H]3CN[C@H](C(=O)N(C)C)C3)[C@H](C)[C@H]12 [Example 59] |

Reference: US11180504B2 (ORCHID PHARMA LTD., priority 2016, dated 2021)
